For the experiment, the system named is IL-12 induced STAT4 phosphorlyation mediated by TYK2/JAK2. The experiment can be described thus: IL-12 Induced pSTAT4 in Human PBMC. Format: cell-based. Conditions: 1.7 ng/mL IL-12 for 30 minutes. An outline of the steps:
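Thawed human PBMC pre-incubated with compound 1 hr at 37° C (0.1% DMSO final), then stimulated 30 minutes with IL-12 at 1.7 ng/mL final. pSTAT4 and total STAT4 measured in cell lysates with MSD reagents.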

Where only a bound is given, the exact number is not on record here.

On to `CNc1cc(Nc2cccn([C@@H]3CCOC[C@@H]3OC)c2=O)nc2c(C(=O)N[C@@H]3CCC3(F)F)cnn12` [Compound I-338], for which the half-maximal inhibitory concentration (IC50) (commonly the point on the concentration scale where inhibition reaches its midpoint) is less than 0.1 µM.
On to `CNc1cc(Nc2cccn(C(C)C)c2=O)nc2c(C(=O)NC3CC[C@]3(C)O)cnn12` (some centres unmarked) [Compound I-339], for which the IC50 was less than 0.1 µM.
In turn, `CNc1cc(Nc2cccn(C3CCOCC3)c2=O)nc2c(C(=O)NC3CC[C@]3(C)O)cnn12` (some centres unmarked) [Compound I-348] registered a half-inhibitory concentration (IC50) of less than 0.1 µM.
For `CNc1cc(Nc2cccn(C3CCOCC3)c2=O)nc2c(C(=O)N[C@H]3CC[C@]3(C)O)cnn12` [Compound I-349], the 50% inhibitory concentration (IC50) is less than 0.1 µM.
With `CNc1cc(Nc2cccn([C@H]3CC[C@@H]3O)c2=O)nc2c(C(=O)N[C@@H]3CC[C@@]3(C)OC)cnn12` [Compound I-377], the 50% inhibitory concentration (IC50) is less than 0.1 µM.
In turn, `CNc1cc(Nc2cccn([C@H]3CCC[C@H]3O)c2=O)nc2c(C(=O)NC3CC[C@]3(C)OC)cnn12` (some centres unmarked) [Compound I-390] registered an IC50 of less than 0.1 µM.
`CNc1cc(Nc2cccn([C@H]3CCC[C@H]3O)c2=O)nc2c(C(=O)N[C@H]3CC[C@]3(C)OC)cnn12` [Compound I-391] came in with a half-inhibitory concentration (IC50) of less than 0.1 µM.
In turn, `CNc1cc(Nc2cccn(C3CCOCC3)c2=O)nc2c(C(=O)NC3CC[C@@]3(C)OC)cnn12` (some centres unmarked) [Compound I-405] yielded an IC50 of less than 0.1 µM.
As for `CNc1cc(Nc2cccn(C3CCOCC3)c2=O)nc2c(C(=O)N[C@H]3CC[C@]3(C)OC)cnn12` [Compound I-407], the half-inhibitory concentration (IC50) was less than 0.1 µM.
With `CNc1cc(Nc2cccn([C@H]3[C@@H]4COC[C@@H]43)c2=O)nc2c(C(=O)N[C@@H]3CC[C@@]3(C)OC)cnn12` [Compound I-410], the IC50 was less than 0.1 µM.
Then `CNc1cc(Nc2cccn(-c3ncccc3F)c2=O)nc2c(C(=O)NC3CC[C@@]3(C)OC)cnn12` (some centres unmarked) [Compound I-414], with less than 0.1 µM; and `CNc1cc(Nc2cccn(-c3ncccc3F)c2=O)nc2c(C(=O)N[C@@H]3CC[C@@]3(C)OC)cnn12` [Compound I-415], with less than 0.1 µM; and `CNc1cc(Nc2cccn([C@H]3CCCC[C@H]3O)c2=O)nc2c(C(=O)NC3CC[C@]3(C)OC)cnn12` (some centres unmarked) [Compound I-423], with less than 0.1 µM.
`CNc1cc(Nc2cccn([C@H]3CCCC[C@H]3O)c2=O)nc2c(C(=O)N[C@H]3CC[C@]3(C)OC)cnn12` [Compound I-424] registered an IC50 of less than 0.1 µM.
On to `CNc1cc(Nc2cccn([C@H]3CC[C@H](OC)CC3)c2=O)nc2c(C(=O)N[C@@H]3CC[C@@]3(C)OC)cnn12` [Compound I-428], for which the IC50 was less than 0.1 µM.
Then `CNc1cc(Nc2cccn([C@H]3CC[C@@H](OC)CC3)c2=O)nc2c(C(=O)N[C@@H]3CC[C@@]3(C)OC)cnn12` [Compound I-431], with less than 0.1 µM; and `CNc1cc(Nc2cccn([C@H]3C[C@H](F)C3)c2=O)nc2c(C(=O)N[C@H]3CC[C@H](O)C3)cnn12` [Compound I-436], with less than 0.1 µM; and `CNc1ccc(-c2cc(NC)n3ncc(C(=O)N[C@H]4CC[C@@H]4F)c3n2)n2ccnc12` [Compound I-481], with less than 0.1 µM.
The compound `CNc1ccc(-c2cc(NC)n3ncc(C(=O)NC4CC[C@H]4F)c3n2)n2ccnc12` (some centres unmarked) [Compound I-483] came in with an IC50 of less than 0.1 µM.
`CNc1ccc(-c2cc(NC)n3ncc(C(=O)NC4CC[C@H]4O)c3n2)n2ccnc12` (some centres unmarked) [Compound I-484]: the IC50 is less than 0.1 µM.
As for `CNc1ccc(-c2cc(NC)n3ncc(C(=O)N[C@H]4CC[C@H]4O)c3n2)n2ccnc12` [Compound I-485], the IC50 is less than 0.1 µM.
Consider `CNc1cc(-c2cn([C@H]3C[C@@H](O)C3)c3ncccc23)nc2c(C(=O)NC3CC[C@@H]3F)cnn12` (some centres unmarked) [Compound I-510], for which the half-inhibitory concentration (IC50) was less than 0.1 µM.
Then `CNc1cc(-c2cn([C@H]3C[C@@H](O)C3)c3ncccc23)nc2c(C(=O)N[C@H]3CC[C@@H]3F)cnn12` [Compound I-511], with less than 0.1 µM; and `CNc1cc(-c2cn(C3CN(C)C3)c3ncccc23)nc2c(C(=O)NC3CC[C@@H]3F)cnn12` (some centres unmarked) [Compound I-513], with less than 0.1 µM; and `CNc1cc(-c2cn(C3CN(C)C3)c3ncccc23)nc2c(C(=O)N[C@H]3CC[C@@H]3F)cnn12` [Compound I-514], with less than 0.1 µM.
`CNc1cc(-c2cn([C@H]3COC[C@@H]3OC)c3ncccc23)nc2c(C(=O)N[C@H]3CC[C@@H]3F)cnn12` [Compound I-523] came in with an IC50 of less than 0.1 µM.
`CNc1cc(-c2cn([C@H]3COC[C@@H]3OC)c3ncccc23)nc2c(C(=O)NC3CC[C@H]3F)cnn12` (some centres unmarked) [Compound I-528] registered a half-inhibitory concentration (IC50) of less than 0.1 µM.
`CNc1cc(-c2cn([C@H]3COC[C@@H]3OC)c3ncccc23)nc2c(C(=O)N[C@H]3CC[C@H]3F)cnn12` [Compound I-529] yielded an IC50 of less than 0.1 µM.
`CNc1cc(-c2cn([C@H]3COC[C@@H]3OC)c3ncccc23)nc2c(C(=O)N[C@@H]3CC[C@@H]3F)cnn12` [Compound I-530] yielded an IC50 of less than 0.1 µM.
Then `CNc1cc(-c2cn([C@@H]3COC[C@H]3OC)c3ncccc23)nc2c(C(=O)NC3CC[C@H]3F)cnn12` (some centres unmarked) [Compound I-531], with less than 0.1 µM; and `CNc1cc(-c2cn([C@@H]3CCOC[C@H]3O)c3ncccc23)nc2c(C(=O)N[C@H]3CC[C@@H]3F)cnn12` [Compound I-538], with less than 0.1 µM.
Then `CNc1cc(-c2cn([C@H]3CCOC[C@H]3OC)c3ncccc23)nc2c(C(=O)NC3CC[C@@H]3F)cnn12` (some centres unmarked) [Compound I-546], with less than 0.1 µM.
As for `CNc1cc(-c2cn([C@@H]3CC3(F)F)c3ncccc23)nc2c(C(=O)NC3CC[C@H]3O)cnn12` (some centres unmarked) [Compound I-548], the figure is less than 0.1 µM; as for `CNc1cc(-c2cn([C@@H]3CC3(F)F)c3ncccc23)nc2c(C(=O)N[C@H]3CC[C@H]3O)cnn12` [Compound I-549], less than 0.1 µM.
Take `CNc1cc(-c2cn([C@H]3CC3(F)F)c3ncccc23)nc2c(C(=O)N[C@H]3CC[C@H]3O)cnn12` [Compound I-552]: the half-inhibitory concentration (IC50) was less than 0.1 µM.
Consider `CNc1cc(-c2cn(C3COC3)c3ncccc23)nc2c(C(=O)N[C@H]3CC[C@H]3O)cnn12` [Compound I-555], for which the concentration for half-maximal inhibition (IC50) is less than 0.1 µM.
With `CNc1cc(-c2cn(C3COC3)c3ncccc23)nc2c(C(=O)N[C@H]3CC[C@@H]3O)cnn12` [Compound I-558], the IC50 is less than 0.1 µM.
The compound `CNc1cc(-c2cn([C@@H]3COC[C@@H]3F)c3ncccc23)nc2c(C(=O)N[C@H]3CC[C@H]3O)cnn12` [Compound I-571] returned an IC50 of less than 0.1 µM.
As for `CNc1cc(-c2cn([C@H]3COC[C@H]3F)c3ncccc23)nc2c(C(=O)NC3CC[C@H]3O)cnn12` (some centres unmarked) [Compound I-573], the figure is less than 0.1 µM; as for `CNc1cc(-c2cn([C@H]3COC[C@H]3F)c3ncccc23)nc2c(C(=O)N[C@H]3CC[C@H]3O)cnn12` [Compound I-574], less than 0.1 µM; as for `CNc1cc(-c2cn([C@@H]3COC[C@H]3OC)c3ncccc23)nc2c(C(=O)N[C@@H]3CC[C@@H]3O)cnn12` [Compound I-583], 0.1 to 0.5 µM.
For the compound `CNc1cc(-c2cn([C@@H]3COC[C@H]3OC)c3ncccc23)nc2c(C(=O)NC3CC[C@H]3O)cnn12` (some centres unmarked) [Compound I-587], the half-maximal inhibitory concentration (IC50) lay in the range of 0.5 to 1 µM.
`CNc1cc(-c2cn([C@@H]3CCOC[C@@H]3F)c3ncccc23)nc2c(C(=O)NC3CC[C@H]3O)cnn12` (some centres unmarked) [Compound I-588] returned an IC50 of 0.1 to 0.5 µM.
On to `CNc1cc(-c2cn([C@H]3CCOC[C@H]3F)c3ncccc23)nc2c(C(=O)NC3CC[C@H]3O)cnn12` (some centres unmarked) [Compound I-591], for which the IC50 fell in the range of 0.5 to 1 µM.

For the origin of these results see patent US11414431B2, “Substituted pyrazolo[1,5-a]pyrimidines as TYK2 inhibitors” (Nimbus Lakshmi, Inc., priority 2018, dated 2022).
